Test results reported in patent US12338279B2, “Selective and potent inhibitory antibodies of myostatin activation” (SCHOLAR ROCK, INC., priority 2022, dated 2025).

Assays:
Format in all cases: in vivo, mouse
[1] = tested on: male C57/BL6 mice on high fat diet; assay: Diet-induced obesity model, Ab109 with 0.01 or 0.04 mg/kg semaglutide (Example 9); conditions: for loss in quadriceps weight: FIG. 21A
Experimental: Male C57/BL6 male mice (n=8/group) were placed on a 60% high fat diet at ˜6 weeks of age and maintained on the 60% high fat diet until 21 weeks of age (Groups 1-12), at which time the study began (day −7). On day −7, animals in groups 1-12 were switched to a 45% high fat diet and maintained on the 45% high fat diet until the animals were terminated. […] Body weight was measured three times per week and qNMR measurements of lean mass and fat mass were obtained pre-dose on day 0 and on days 7, 14 and 21. Fasting glucose was measured on day 18 after a 4 hour fast.
Animals in groups 3-12 were dosed with semaglutide daily for 3 weeks, then terminated. Animals in groups 1, 3, and 4 were treated with IgG control antibody, and those in groups 2, 5-12 were treated with myostatin activation inhibiting antibody treatment, for 3 weeks.
At termination, left gastrocnemius and quadriceps muscles were removed and frozen; the liver was weighed, one lobe was frozen; epididymal (perigonadal) adipose tissue was removed and weighed; inguinal (subcutaneous) adipose tissue was removed and weighed; and a terminal serum bleed was obtained.

circulating leptin = assay: Circulating leptin (U-PLEX Metabolic Hormones Combo 1), Example 6; conditions: for Leptin Day 64 (circulating leptin): 60%/45% high fat diet
Experimental: Circulating leptin was measured using the U-PLEX Metabolic Hormones Combo 1 (mouse) according to manufacturer's instructions (Meso Scale Diagnostics, #K15306K-2). As expected, circulating leptin was higher in animals fed the high fat diet than animals fed a standard chow.

[2] = tested on: male C57/BL6 mice on high fat diet; assay: Diet-induced obesity model, semaglutide with Ab109, withdrawal and continuous arms (Example 6); conditions: for Relative Fat Mass Day 63 (% Body Fat): 60%/45% high fat diet
Experimental: Male C57/BL6 male mice (n=8/group) were either fed regular mouse chow (Group 1) or placed on a 60% high fat diet at six weeks of age and maintained on the 60% high fat diet until 21 weeks of age (Groups 2-8), at which time the study began (day 0). On day 0, animals in groups 2-8 were switched to a 45% high fat diet and maintained on the 45% high fat diet until the animals were terminated. […] Body weight was measured three times per week and qNMR measurements of lean mass and fat mass were obtained on the days set forth.
Animals in groups 3 and 4 were dosed with semaglutide weekly for 14 days, then terminated. Animals in groups 5 and 6 (weight regain groups), were treated with semaglutide for 35 days, then the semaglutide treatment was ended while the myostatin activation inhibiting antibody treatment continued until the animals were terminated on day 63. The animals in Groups 7 and 8 were treated with semaglutide for 63 days, i.e., they remained on semaglutide until the study terminated on day 63.
At termination, left and right gastrocnemius muscles were removed and frozen; the liver was weighed, one lobe was fixed, and the remainder was frozen; epididymal adipose tissue was removed and weighed; subcutaneous adipose tissue was removed and weighed; and a terminal serum bleed was obtained.

total myostatin in serum = assay: Circulating total myostatin in serum (acidification ELISA), dexamethasone model; conditions: as compared to apitegromab
Source text: Briefly, serum samples were acidified at low pH (e.g., pH ˜2.5) to dissociate the bound antibody from the immune complex and to convert all myostatin in the sample to the active form of growth factor (i.e., mature myostatin). Samples were then neutralized and assayed for the presence of mature myostatin on ELISA plates coated with anti-mature myostatin antibodies as capture reagents.

[3] = semaglutide 0.04 mg/kg day 7-35 (regain arm) with control hIgG
[4] = semaglutide 0.04 mg/kg day 7-63 with control hIgG
[5] = semaglutide 0.04 mg/kg and hIgG

Substance | loss in lean mass ([1]; 0.01 mg/kg semaglutide, FIG. 20B) [%] | lean mass lost ([1]; 0.04 mg/kg semaglutide and hIgG, 3 weeks, FIG. 20A) | loss in quadriceps weight ([1]; semaglutide high dose (0.04 mg/kg)) [%] | loss in quadriceps weight ([1]; semaglutide low dose (0.01 mg/kg)) [%] | Leptin Day 64 (circulating leptin) (circulating leptin; [3]) [ng/mL] | Leptin Day 64 (circulating leptin) (circulating leptin; [4]) [ng/mL] | circulating leptin (circulating leptin; treatment arm as in the words, FIG. 14K) | Relative Fat Mass Day 63 (% Body Fat) [2, 3] [% Body Fat] | Relative Fat Mass Day 63 (% Body Fat) [2, 4] [% Body Fat] | lean mass lost while on semaglutide [2, 5] | net loss of lean mass at the end of the study [2, 5] [%] | fat mass ([2]; semaglutide 0.04 mg/kg, FIG. 14D) | accumulation of total or latent myostatin in serum samples from dosed subjects (total myostatin in serum)
semaglutide [reference compound] | 4.7 | about 9.5% | −7.6 | −4.8 | 37.87 | 6.357 | Continuous semaglutide administration lowered circulating leptin | 28.69 | 14.84 | about 4% | 2.5 | induced fat mass loss | 
apitegromab: prior art myostatin-selective activation inhibitor antibody targeting pro/latent myostatin [reference compound] |  |  |  |  |  |  |  |  |  |  |  |  | increased accumulation
